# Reference: ChEMBL document CHEMBL4219252, “Synthesis, antimycobacterial activity and influence on mycobacterial InhA and PknB of 12-membered cyclodepsipeptides” (Bioorg Med Chem, 2018)
# Assays:
# Format in all cases: functional, variant bovis BCG
# [1] = test system: Mycobacterium tuberculosis; experiment: Antimycobacterial activity against wild type Mycobacterium bovis BCG harboring pATB45 after 48 hrs by resazurin microtiter assay
# [2] = test system: Mycobacterium tuberculosis; experiment: Ratio of MIC for Mycobacterium bovis BCG harboring pATB45::inhA to MIC for Mycobacterium bovis BCG harboring pATB45
# [3] = test system: Mycobacterium tuberculosis; experiment: Antimycobacterial activity against Mycobacterium bovis BCG harboring pATB45::inhA after 48 hrs by resazurin microtiter assay
# [4] = Mycobacterium tuberculosis, variant bovis BCG, 48 h, read-out: MIC
structure (smiles),measurement,setting,value
C[C@H]1OC(=O)CCC(Cc2ccccc2)NC(=O)[C@@H](NC(=O)c2ncccc2O)[C@@H](C)OC1=O (some centres not stated),MIC,[1]; [4],62.5 µM
same,Ratio,[2],1
same,MIC,[3]; [4],62.5 µM
NNC(=O)c1ccncc1 [ISONIAZID],MIC,[1]; [4],0.8 µM
same,Ratio,[2],15.6
same,MIC,[3]; [4],12.5 µM
C[C@H]1OC(=O)COC(=O)CCC(Cc2ccccc2)NC(=O)[C@H]1NC(=O)OC(C)(C)C (stereo in doubt; form 1),MIC,[1],62.5 µM
same,Ratio,[2],2
same,MIC,[3],125 µM
C[C@H]1OC(=O)COC(=O)CCC(Cc2ccccc2)NC(=O)[C@H]1NC(=O)OC(C)(C)C (stereo in doubt; form 2),MIC,[1],7.8 µM
same,Ratio,[2],1
same,MIC,[3],7.8 µM
